{"source": "patent US6448475B1", "about": "“Manipulation of tocopherol levels in transgenic plants by transformation with a synechocystis 2-methyl-6-phytylplastoquinol/2-methyl-6-solanylplastoquinol-9 methyltransferase” (The University and Community College System of Nevada, priority 1998, dated 2002)", "key": {"[1]": {"assay": "In vitro 2-methyl-6-solanylplastoquinol methyltransferase assay of E. coli expressed SLL0418", "format": "biochemical, Synechocystis", "conditions": "E. coli extract", "excerpt": "(§1) A second approach to characterizing the Synechocystis genes and proteins involved in tocopherol biosynthesis involved the expression and biochemical analysis of these genes in E. coli. The Synechocystis SLL0418 gene sequence was subcloned from pSLL0418-1 as a Nde1/Hind3 fragment into the Nde1 and Hind3 sites of the E. coli expression vector, pET30B. The resulting plasmid construct was designated p041798 and was transformed into the E. coli strain BL21(DE3)pLysS. Protein expression was induced with 1 mM isopropylthio-b-galactoside (IPTG) in the cells transformed with p041798 and cells transformed with the empty pET30B vector. Induced cultures were grown for 3 hours at 28° C. in a shaking incubator after which the cells were harvested by centrifugation at 8,000 g for 10 minutes at 4° C. and stored at […] The cell pellets were resuspended in 50 mM Tris-HCl pH 8.0, 5 mM DTT, 1 mM PMSF and homogenized with four 10 second burst with a sonicator. Triton X 100 was then added to a final concentration of 1% and the mixture was incubated on ice for 30 minutes. The insoluble material was then removed by centrifugation at 40,000 g for 30 minutes and the supernatant was saved for methyltransferase assays.\nThe 2-methyl-6-solanylplastoquinol substrate was purified from Iris bulbs. One hundred gm of iris bulbs were homogenized in 500 mL acetone. […]"}, "[2]": {"assay": "In vitro 2-methyl-6-phytylplastoquinol methyltransferase assay of E. coli expressed SLL0418", "format": "biochemical, Synechocystis", "conditions": "E. coli extract", "excerpt": "as §1\nA mixture of 6 different isomers of methylphytylplastoquinone was synthesized as described by Henry et al. (1987) Biochem J 242: 367-373. […]"}}, "data": [{"substance": "2-methyl-6-phytylplastoquinol/2-methyl-6-solanylplastoquinol-9 methyltransferase [SLL0418]", "values": [{"measurement": "methylation of 2-methyl-6-solanylplastoquinol to form 2,3-dimethylsolanylplastoquinol", "setting": "[1]; result in words", "result": "able to methylate"}, {"measurement": "amount of 14C labeled 2,3-dimethylsolanylplastoquinol product produced", "setting": "[1]; substrate 2-methyl-6-solanylplastoquinol, [14C-methyl]-S-adenosylmethionine, 30 minutes, room temperature", "result": 174, "unit": "CPM"}, {"measurement": "methylation of 2-methyl-6-phytylplastoquinol to form 2,3-dimethylphytlyplastoquinol", "setting": "[2]; result in words", "result": "able to methylate"}, {"measurement": "amount of 14C labeled 2,3-dimethyl-6-phytylplastoquinol product produced", "setting": "[2]; substrate 2-methyl-6-phytylplastoquinol, [14C-methyl]-S-adenosylmethionine, 30 minutes, room temperature", "result": 484, "unit": "CPM"}]}]}
